≈ marks a conversion by molar mass, not a printed value. Read-outs that look alike come from different tables or passages of the source.
Key:
[1] = test system: P. aeruginosa; set-up: method as in earlier work; conditions: previously determined, cited from earlier work
[2] = test system: E. faecium; experiment: microbe, parasite or virus in culture; assay type: cell-based; conditions: for MIC: Enterococcus faecium, E. faecium
[3] = test system: A. baumannii; set-up: method as in earlier work; conditions: previously determined, cited from earlier work
[4] = test system: resistant strains of ATCC 29213; experiment: microbe, parasite or virus in culture; assay type: cell-based, S. aureus; conditions: Staphylococcus aureus
[5] = test system: E. coli; experiment: microbe, parasite or virus in culture; assay type: cell-based
Source text: (§1) MRSA and P. aeruginosa isolates were from Cubist Pharmaceuticals (Lexington, MA). VRE isolates were from a previously published collection. E. coli strains were obtained either from ATCC or Professor Cari Vanderpool (UIUC). A. baumannii isolates were obtained from Dr John Quale[51].
(§2) Mueller Hinton (MH) broth was used.

[6] = test system: E. faecalis; experiment: microbe, parasite or virus in culture; assay type: cell-based; conditions: for MIC: Enterococcus faecalis, E. faecalis
[7] = test system: P. aeruginosa; experiment: MIC, microdilution broth, P. aeruginosa; assay type: cell-based
Source text: as §1, §2

[8] = test system: A. baumannii; experiment: MIC, microdilution broth, A. baumannii; assay type: cell-based; conditions: for MIC: Acinetobacter baumannii
Source text: as §1, §2

[9] = biological target: T1, human topoisomerase II (Homo sapiens, UniProt P11388); experiment: Human topoisomerase decatenation assay; assay type: biochemical
T1 construct: purchased Inspiralis
Procedure: The decatenation assay was performed with the Human Topo II Decatenation Assay Kit (Inspiralis), according to the manufacturer's instructions, with minor modifications. First, a master mix was made containing 2 μl of 10 × assay buffer (500 mM Tris-HCl pH 7.5, 1250, mM NaCl, 100 mM MgCl2, 50 mM DTT, 1,000 μg ml^−1 albumin), 0.67 μl of 30 mM ATP, 1.34 μl of 0.1 ng μl^−1 kDNA, and 14.3 μl of nuclease-free water per sample is made. DMSO or 30 × compound is added to a 0.5-ml Eppendorf tube (0.67 μl per tube). The master mix is then added to each tube (18.3 μl per tube). Finally, 1 U of human topoisomerase (1 μl of 1 U μl^−1 stock) is added to each tube for a final volume of 20 μl. The tubes are then incubated at 37 °C for 30 min. Reactions are stopped by the addition of 20 μl of 24:1 chloroform:isoamyl alcohol and 20 μl of stop dye (40% sucrose, 1 mM EDTA, 100 mM Tris-HCl pH 7.5, 0.5 μg ml^−1 bromophenol blue). Samples were run on 1% agarose gels containing 0.5 μg ml^−1 ethidium bromide for 1 h at 110 V or until the dye front was approximately halfway down the gel. Gels were imaged on a Molecular Imager Gel Doc XR+ (Biorad).

[10] = test system: MRSA clinical isolates; experiment: microbe, parasite or virus in culture; assay type: cell-based, S. aureus; conditions: for MIC: Staphylococcus aureus, MRSA, read-out: MIC
Procedure: as §1
Susceptibility testing was performed in triplicate, using the microdilution broth method as outlined by the Clinical and Laboratory Standards Institute[52]. Mueller Hinton (MH) broth was used.

[11] = test system: VRE clinical isolates; experiment: MIC, VRE clinical isolates panel (summary by GyrA mutation); assay type: cell-based, Enterococcus; conditions: panel of VRE clinical isolates (n=22)
Source text: as §1, §2

[12] = physchem; conditions: pH 7.4
Procedure: Three independent replicates of each compound were performed.

[13] = test system: WT S. aureus (ATCC 29213, WT); experiment: microbe, parasite or virus in culture; assay type: cell-based; conditions: WT GyrA and WT ParC, three independent replicates
[14] = test system: FQR S. aureus (NRS3, FQR); experiment: MIC, microdilution broth assay, FQR MRSA NRS3; assay type: cell-based; conditions: NRS3; S84L GyrA and S80F ParC; three independent replicates
[15] = test system: Ent. Spp.; experiment: MIC, microdilution broth, Ent. Spp. VRE clinical isolate; assay type: cell-based; conditions: Enterococcus, C28036, gyrA Ser83Ile, parC Ser80Ile
Source text: as §1, §2

[16] = ATCC19433, ATCC 19433, gyrA WT, parC WT
[17] = ATCC29212, ATCC 29212, gyrA WT, parC WT

T1 sequence (P11388 whole entry): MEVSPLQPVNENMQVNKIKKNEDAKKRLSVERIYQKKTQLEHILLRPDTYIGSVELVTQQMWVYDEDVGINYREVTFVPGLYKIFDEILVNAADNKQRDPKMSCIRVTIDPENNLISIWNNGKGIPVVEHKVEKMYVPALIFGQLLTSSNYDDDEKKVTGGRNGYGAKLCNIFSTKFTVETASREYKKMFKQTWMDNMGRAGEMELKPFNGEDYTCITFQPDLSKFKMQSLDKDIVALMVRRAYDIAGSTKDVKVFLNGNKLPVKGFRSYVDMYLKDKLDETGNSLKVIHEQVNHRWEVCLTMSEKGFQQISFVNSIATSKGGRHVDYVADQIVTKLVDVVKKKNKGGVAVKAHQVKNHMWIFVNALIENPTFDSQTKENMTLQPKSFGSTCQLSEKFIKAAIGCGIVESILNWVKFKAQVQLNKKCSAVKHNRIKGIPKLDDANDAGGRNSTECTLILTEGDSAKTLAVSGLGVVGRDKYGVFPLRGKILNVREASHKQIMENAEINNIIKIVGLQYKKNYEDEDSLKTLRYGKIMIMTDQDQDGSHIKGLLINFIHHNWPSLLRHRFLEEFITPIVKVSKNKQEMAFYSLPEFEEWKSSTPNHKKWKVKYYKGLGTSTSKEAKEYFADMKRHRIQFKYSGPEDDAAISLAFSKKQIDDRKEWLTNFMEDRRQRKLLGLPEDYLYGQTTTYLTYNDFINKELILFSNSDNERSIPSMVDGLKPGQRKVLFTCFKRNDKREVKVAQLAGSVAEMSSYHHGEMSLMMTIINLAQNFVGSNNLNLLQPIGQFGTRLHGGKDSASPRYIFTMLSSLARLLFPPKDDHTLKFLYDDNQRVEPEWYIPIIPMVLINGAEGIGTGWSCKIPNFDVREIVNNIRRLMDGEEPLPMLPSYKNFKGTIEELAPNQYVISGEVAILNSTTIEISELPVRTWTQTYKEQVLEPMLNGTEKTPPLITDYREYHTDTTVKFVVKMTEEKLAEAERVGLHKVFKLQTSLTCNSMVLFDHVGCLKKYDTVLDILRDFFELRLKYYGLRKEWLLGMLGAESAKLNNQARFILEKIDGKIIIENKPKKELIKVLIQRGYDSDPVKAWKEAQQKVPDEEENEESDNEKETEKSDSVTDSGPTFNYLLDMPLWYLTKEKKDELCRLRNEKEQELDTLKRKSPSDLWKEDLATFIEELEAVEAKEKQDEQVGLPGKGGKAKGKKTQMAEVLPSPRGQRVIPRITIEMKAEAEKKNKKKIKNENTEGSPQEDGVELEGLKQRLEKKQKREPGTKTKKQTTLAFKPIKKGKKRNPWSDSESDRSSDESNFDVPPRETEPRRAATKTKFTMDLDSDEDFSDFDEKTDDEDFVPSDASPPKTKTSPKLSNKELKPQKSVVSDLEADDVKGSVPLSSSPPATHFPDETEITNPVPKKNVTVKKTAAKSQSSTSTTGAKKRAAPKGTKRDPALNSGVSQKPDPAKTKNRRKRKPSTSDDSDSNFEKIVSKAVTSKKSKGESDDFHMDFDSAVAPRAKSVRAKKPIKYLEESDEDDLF

SMILES: O=C(O)c1cn(C2CC2)c2cc(N3CCNCC3)c(F)cc2c1=O [CIP, ciprofloxacin, reference compound]
- CIP (S/R) ([1]; PA1000): R
- CIP (S/R) ([1]; PA1586): R
- CIP (S/I/R) ([2]; strain C21190): R (resistant (R) with a MIC ≥ 16 µg mL-1)
- CIP (S/I/R) ([2]; strain C27282): R (resistant (R) with a MIC ≥ 16 µg mL-1)
- CIP (S/I/R) ([2]; strain C27569): R (resistant (R) with a MIC ≥ 16 µg mL-1)
- CIP (S/I/R) ([2]; strain D1): R (resistant (R) with a MIC ≥ 16 µg mL-1)
- CIP (S/I/R) ([2]; strain S34): R (resistant (R) with a MIC ≥ 16 µg mL-1)
- CIP (S/I/R) ([2]; strain S51): R (resistant (R) with a MIC ≥ 16 µg mL-1)
- CIP (S/I/R) ([2]; strain S122): R (resistant (R) with a MIC ≥ 16 µg mL-1)
- CIP (S/I/R) ([2]; strain S226): R (resistant (R) with a MIC ≥ 16 µg mL-1)
- CIP (S/I/R) ([2]; strain S235): R (resistant (R) with a MIC ≥ 16 µg mL-1)
- CIP (S/I/R) ([2]; strain S344): R (resistant (R) with a MIC ≥ 16 µg mL-1)
- CIP (S/I/R) ([2]; strain S557): R (resistant (R) with a MIC ≥ 16 µg mL-1)
- CIP (S/I/R) ([2]; strain SL152): R (resistant (R) with a MIC ≥ 16 µg mL-1)
- CIP (S/I/R) ([2]; strain U63): R (resistant (R) with a MIC ≥ 16 µg mL-1)
- CIP (S/I/R) ([2]; strain U275): R (resistant (R) with a MIC ≥ 16 µg mL-1)
- CIP (S/I/R) ([2]; strain U464): R (resistant (R) with a MIC ≥ 16 µg mL-1)
- CIP (S/I/R) ([2]; strain U503): R (resistant (R) with a MIC ≥ 16 µg mL-1)
- CIP (S/I/R) ([2]; strain U563): R (resistant (R) with a MIC ≥ 16 µg mL-1)
- CIP (S/R) ([3]; A. baumannii KB304): R
- CIP MIC ([3]; A. baumannii KB304): 24 µg/mL
- CIP (S/R) ([3]; A. baumannii KB349): R
- CIP MIC ([3]; A. baumannii KB349): > 32 µg/mL
- MIC ([4]; ATCC29213, high-level CIP-resistant strains, second step, S84L mutation in GyrA): 16 to 64 µg/mL (≈ 48.3 to 193 µM)
- MIC ([4]; ATCC29213, low-level CIP-resistant strains, first step, WT gyrA, mutation in ParC (for example E84K or S80F)): 4 to 8 µg/mL (≈ 12.1 to 24.1 µM)
- CIP (S/R) [5]: S
- MIC [6, 16]: 2 µg/mL (≈ 6.04 µM)
- MIC [6, 17]: 0.5 to 2 µg/mL (≈ 1.51 to 6.04 µM)
- CIP (S/I/R) ([6]; strain ATCC 19433): S (sensitive (S) if it had an MIC ≤ 4 µg mL-1)
- CIP (S/I/R) ([6]; strain ATCC 29212): S (sensitive (S) if it had an MIC ≤ 4 µg mL-1)
- CIP (S/I/R) ([6]; strain C21667): R (resistant (R) with a MIC ≥ 16 µg mL-1)
- CIP (S/I/R) ([6]; strain C28535): R (resistant (R) with a MIC ≥ 16 µg mL-1)
- CIP (S/I/R) ([6]; strain S206): R (resistant (R) with a MIC ≥ 16 µg mL-1)
- CIP (S/I/R) ([6]; strain S234): R (resistant (R) with a MIC ≥ 16 µg mL-1)
- CIP (S/R) [7]: S
- CIP (S/R) [8]: S

SMILES: COc1cccc2c1C(=O)c1c(O)c3c(c(O)c1C2=O)C[C@@](O)(C(=O)CO)C[C@@H]3O[C@H]1C[C@H](N)[C@H](O)[C@H](C)O1 [doxorubicin, reference compound]
- concentration inhibiting human topoisomerase II [9]: 3 µM

SMILES: CCCn1c(=O)cc(C)c2cc3c(C)cc(=O)n4c3c(c21)OC4 [DNM-8]
- MIC ([10]; strain SAU.1118): 8 µg/mL (≈ 25.8 µM)
- MIC ([10]; strain SAU.2996): 2 µg/mL (≈ 6.44 µM)
- MIC ([10]; strain SAU.3017): 4 µg/mL (≈ 12.9 µM)
- MIC ([10]; strain SAU.3021): 0.125 µg/mL (≈ 0.403 µM)
- MIC ([10]; strain SAU.3025): 0.125 µg/mL (≈ 0.403 µM)
- MIC ([10]; strain SAU.3026): 0.25 µg/mL (≈ 0.806 µM)
- MIC ([10]; strain SAU.42): 8 µg/mL (≈ 25.8 µM)
- MIC ([10]; strain SAU.447): 1 µg/mL (≈ 3.22 µM)
- MIC ([10]; strain SAU.555): 0.5 µg/mL (≈ 1.61 µM)
- MIC ([10]; strain SAU.669): 0.125 µg/mL (≈ 0.403 µM)
- Sensitivity of MRSA clinical isolates ([10]; panel of MRSA clinical isolates (n=21)): sensitive
- MIC ([2]; C21190, gyrA Ser83 Arg, parC Ser80Ile): 8 µg/mL (≈ 25.8 µM)
- MIC ([2]; C27282, gyrA Ser83 Arg, parC Ser80Arg): 8 µg/mL (≈ 25.8 µM)
- MIC ([2]; C27569, gyrA Ser83Ile, parC Ser80Ile): 1 µg/mL (≈ 3.22 µM)
- MIC ([2]; D1, gyrA Ser83Ile, parC Ser80Ile): 0.5 µg/mL (≈ 1.61 µM)
- MIC ([2]; S34, gyrA Ser83Ile, parC Ser80 Arg): 2 µg/mL (≈ 6.44 µM)
- MIC ([2]; S51, gyrA Ser83Ile, parC Ser80Ile): 1 µg/mL (≈ 3.22 µM)
- MIC ([2]; S122, gyrA Ser83Ile, parC Ser80Ile): 1 µg/mL (≈ 3.22 µM)
- MIC ([2]; S226, gyrA Ser83Ile, parC Ser80Ile): 1 µg/mL (≈ 3.22 µM)
- MIC ([2]; S235, gyrA Ser83Ile, parC Ser80Ile): 1 µg/mL (≈ 3.22 µM)
- MIC ([2]; S344, gyrA Ser83Ile, parC Ser80Ile): 1 µg/mL (≈ 3.22 µM)
- MIC ([2]; S557, gyrA Ser83Ile, parC Ser80Ile): 0.5 µg/mL (≈ 1.61 µM)
- MIC ([2]; SL152, gyrA Ser83Ile, parC Ser80Ile): 1 µg/mL (≈ 3.22 µM)
- MIC ([2]; U63, gyrA Ser83 Arg, parC Ser80Ile): 4 µg/mL (≈ 12.9 µM)
- MIC ([2]; U275, gyrA Ser83Cys Glu87Gly, parC Ser80Ile): 4 µg/mL (≈ 12.9 µM)
- MIC ([2]; U464, gyrA Ser83 Arg, parC Ser80Ile): 2 µg/mL (≈ 6.44 µM)
- MIC ([2]; U503, gyrA Ser83 Arg, parC Ser80Ile): 4 µg/mL (≈ 12.9 µM)
- MIC ([2]; U563, gyrA Ser83 Arg, parC Ser80Ile): 4 µg/mL (≈ 12.9 µM)
- Sensitivity of VRE clinical isolates [11]: sensitive
- solubility at 1 h [12]: 68 ± 9 µM (≈ 21.1 µg/mL)
- MIC ([5]; Escherichia coli, ATCC25922, E. coli ATCC 25922, gyrA none, parC none): > 32 µg/mL
- MIC against S. aureus 29213 ([13]; ATCC 29213): 16 µg/mL (≈ 51.6 µM)
- MIC ([13]; Staphylococcus aureus, ATCC29213, ATCC 29213, read-out: MIC against S. aureus 29213): 16 µg/mL (≈ 51.6 µM)
- MIC [6, 16]: 16 µg/mL (≈ 51.6 µM)
- MIC [6, 17]: 8 µg/mL (≈ 25.8 µM)
- MIC ([6]; C21667, gyrA Ser83Ile, parC Ser80Ile): 1 µg/mL (≈ 3.22 µM)
- MIC ([6]; C28535, gyrA Ser83Ile, parC Ser80Ile): 1 µg/mL (≈ 3.22 µM)
- MIC ([6]; S206, gyrA Ser83 Arg, parC Ser80Ile): 4 µg/mL (≈ 12.9 µM)
- MIC ([6]; S234, gyrA Ser83Ile, parC Ser80Ile Glu84Asp): 0.5 µg/mL (≈ 1.61 µM)
- MIC ([7]; PA1586 (CIP resistant clinical isolate)): > 32 µg/mL
- MIC ([7]; Pseudomonas aeruginosa, P. aeruginosa PAO1, read-out: MIC): > 32 µg/mL
- MIC ([7]; Pseudomonas aeruginosa, read-out: MIC): > 32 µg/mL
- MIC [8]: > 32 µg/mL
- MIC ([8]; ATCC19606, A. baumannii ATCC 19606, read-out: MIC): > 32 µg/mL
- MIC against S. aureus NRS3 [14]: 0.12 µg/mL (≈ 0.387 µM)
- MIC [15]: 1 µg/mL (≈ 3.22 µM)

Source: publication PMC4421842 (Nature Communications, 2015)
